The source made the active and inactive calls. No cut-off for these calls is given here.
Tests used:
[1] = Cytotoxicity against C57BL/6 mouse BMDM cells incubated for 48 hrs by MTT assay; assay type: toxicity, cell-based; conditions: BMDM cells (bone marrow-derived macrophages)
BMDM = test: Anti-osteoclastogenesis activity in C57BL/6 mouse BMDM cells assessed as inhibition of RANKL-induced osteoclastogenesis at 10 uM incubated for 7 days in the presence of M-CSF by TRAP-staining based microscopic analysis relative to control; assay type: functional; conditions: for inhibition at 10 µM: C57BL/6, BMDM, 168 h, time 7 day
[2] = target: Kelch-like ECH-associated protein 1 (Homo sapiens, UniProt Q14145); test: Binding affinity to recombinant human Keap1 by SPR analysis
Sequence of Kelch-like ECH-associated protein 1 (Q14145 whole entry): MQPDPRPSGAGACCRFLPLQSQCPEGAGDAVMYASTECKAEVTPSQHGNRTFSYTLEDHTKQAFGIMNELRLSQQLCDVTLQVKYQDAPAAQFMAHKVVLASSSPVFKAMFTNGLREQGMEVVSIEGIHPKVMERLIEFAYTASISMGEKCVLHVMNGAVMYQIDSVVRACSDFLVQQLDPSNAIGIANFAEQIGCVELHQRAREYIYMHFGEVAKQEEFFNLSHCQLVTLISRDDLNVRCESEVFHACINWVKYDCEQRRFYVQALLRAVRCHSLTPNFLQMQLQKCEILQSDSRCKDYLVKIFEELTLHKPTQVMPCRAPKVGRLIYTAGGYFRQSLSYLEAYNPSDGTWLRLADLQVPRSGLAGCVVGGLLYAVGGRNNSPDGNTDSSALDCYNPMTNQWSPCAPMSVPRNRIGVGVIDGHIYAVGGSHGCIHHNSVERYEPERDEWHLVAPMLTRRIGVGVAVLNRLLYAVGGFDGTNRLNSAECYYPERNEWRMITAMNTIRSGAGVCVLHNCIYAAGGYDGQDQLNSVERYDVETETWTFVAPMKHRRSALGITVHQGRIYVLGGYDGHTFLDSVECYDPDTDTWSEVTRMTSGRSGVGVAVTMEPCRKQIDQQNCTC

C=C1[C@H](OC(C)=O)C[C@H](OC(C)=O)[C@@]2(C)[C@@H](OC(C)=O)C[C@@H](OC(C)=O)[C@]3(CO3)[C@@H]2[C@H](OC(C)=O)[C@]2(O)[C@@H](C)C(=O)O[C@H]2[C@H]1Cl
CC50 at 48 h [1]: > 50 µM
inhibition at 10 µM (BMDM): 80.8%

C=C1CC[C@H](OC(C)=O)[C@]2(C)[C@@H](OC(C)=O)C[C@@H](OC(C)=O)/C(CO)=C\[C@@H]3OC(=O)[C@H](C)[C@@]3(O)[C@@H](OC(C)=O)[C@@H]12
CC50 at 48 h [1]: > 50 µM
inhibition at 10 µM (BMDM): 40.7%

CC(=O)O[C@H]1/C=C\C(COC(=O)CC(C)C)=C/[C@@H]2OC(=O)[C@H](C)[C@@]2(O)[C@@H](OC(C)=O)[C@H]2[C@@]3(CO3)[C@H](OC(=O)CC(C)C)C[C@H](OC(C)=O)[C@]12C
CC50 at 48 h [1]: > 50 µM
inhibition at 10 µM (BMDM): 25%

C=C1[C@H](Cl)[C@@H]2OC(=O)[C@H](C)[C@]23O[C@]1(O)C[C@H](OC(C)=O)[C@@]1(C)[C@@H](OC(C)=O)C[C@@H](OC(=O)CC(C)C)[C@]2(CO2)[C@@H]1[C@@H]3OC(C)=O
CC50 at 48 h [1]: > 50 µM
inhibition (BMDM; time 7.0 day): inactive

CC(=O)O[C@H]1CC[C@]2(CO2)[C@@H]2[C@H](OC(C)=O)[C@@]3(O)[C@H](/C=C(/C)[C@H](OC(C)=O)C[C@H](OC(C)=O)[C@@]12C)OC(=O)[C@@H]3C [11ALPHA,20ALPHA-EPOXYJUNCEELLOLIDE]
CC50 at 48 h [1]: > 50 µM
inhibition at 10 µM (BMDM): 58.1%

CC(=O)O[C@H]1/C=C\C(CO)=C/[C@@H]2OC(=O)[C@H](C)[C@@]2(O)[C@@H](OC(C)=O)[C@H]2[C@@]3(CO3)[C@H](OC(C)=O)C[C@H](OC(C)=O)[C@]12C
CC50 at 48 h [1]: < 10 µM

C=C1CC[C@H](OC(C)=O)[C@]2(C)[C@@H](OC(C)=O)C[C@@H](OC(C)=O)/C(C)=C\[C@@H]3OC(=O)[C@H](C)[C@@]3(O)[C@@H](OC(C)=O)[C@@H]12
CC50 at 48 h [1]: > 50 µM
inhibition at 10 µM (BMDM): 58.7%

C=C1CC[C@H](OC(C)=O)[C@]2(C)[C@@H](OC(C)=O)C[C@@H](OC(C)=O)/C(C(=O)OC)=C\[C@@H]3OC(=O)[C@H](C)[C@@]3(O)[C@@H](OC(C)=O)[C@@H]12
CC50 at 48 h [1]: > 50 µM
inhibition at 10 µM (BMDM): 49.4%

C=C1CC[C@H](OC(=O)CC(C)C)[C@]2(C)[C@@H](OC(C)=O)C[C@@H](OC(C)=O)/C(C)=C\[C@@H]3OC(=O)[C@H](C)[C@@]3(O)[C@@H](OC(C)=O)[C@@H]12
CC50 at 48 h [1]: > 50 µM
inhibition at 10 µM (BMDM): 68%

CCOCC1=C/[C@@H]2OC(=O)[C@H](C)[C@@]2(O)[C@@H](OC(C)=O)[C@H]2[C@@]3(CO3)[C@H](OC(=O)CC(C)C)C(OC(C)=O)[C@H](OC(C)=O)[C@]2(C)[C@@H](OC(=O)COC(=O)CC(C)C)/C=C\1 (stereo partly specified)
CC50 at 48 h [1]: > 50 µM
inhibition at 10 µM (BMDM): 41.9%

CC(=O)O[C@H]1/C=C\C(CO)=C/[C@@H]2OC(=O)[C@H](C)[C@@]2(O)[C@@H](OC(C)=O)[C@H]2[C@@]3(CO3)[C@H](OC(C)=O)C[C@H](OC(=O)CC(C)C)[C@]12C
CC50 at 48 h [1]: > 50 µM
inhibition at 10 µM (BMDM): 68%

C=C1/C=C/[C@H](OC(C)=O)[C@@]2(C)[C@@H](OC(C)=O)CC[C@]3(CO3)[C@@H]2[C@H](OC(C)=O)[C@]2(O)[C@@H](C)C(=O)O[C@H]2[C@H]1Cl [JUNCEELLOLIDE C]
CC50 at 48 h [1]: > 50 µM
inhibition at 10 µM (BMDM): 75%

C=C1[C@H]2O[C@]3([C@@H](C)C(=O)O[C@H]3[C@H]1Cl)[C@@H](OC(C)=O)[C@H]1[C@@]3(CO3)[C@H](OC(C)=O)C[C@H](OC(C)=O)[C@]1(C)[C@@H](OC(C)=O)[C@@H]2OC(C)=O
CC50 at 48 h [1]: > 50 µM
Activity [2]: Active
inhibition at 10 µM (BMDM): 37.1%

CC(=O)O[C@H]1/C=C\C(CO)=C/[C@@H]2OC(=O)[C@H](C)[C@@]2(O)[C@@H](OC(C)=O)[C@H]2[C@@]3(CO3)[C@H](OC(=O)CC(C)C)C[C@H](OC(C)=O)[C@]12C
CC50 at 48 h [1]: < 10 µM

C=C1[C@H](OC(=O)CC(C)C)C[C@H](OC(C)=O)[C@@]2(C)[C@@H](OC(C)=O)C[C@@H](OC(C)=O)[C@]3(CO3)[C@@H]2[C@H](OC(C)=O)[C@]2(O)[C@@H](C)C(=O)O[C@H]2[C@H]1Cl
CC50 at 48 h [1]: > 50 µM
Activity [2]: Active
inhibition at 10 µM (BMDM): 100%

C=C1CC[C@H](OC(C)=O)[C@@]2(C)[C@@H](OC(C)=O)C[C@@H](OC(C)=O)[C@]3(CO3)[C@@H]2[C@H](OC(C)=O)[C@]2(O)[C@@H](C)C(=O)O[C@H]2[C@H]1Cl
CC50 at 48 h [1]: > 50 µM
Activity [2]: Active
inhibition at 10 µM (BMDM): 13.5%

C=C1[C@H]2O[C@]3([C@@H](C)C(=O)O[C@H]3[C@H]1Cl)[C@@H](OC(C)=O)[C@H]1[C@@](O)(CCl)CC[C@H](OC(C)=O)[C@]1(C)[C@@H](OC(C)=O)[C@@H]2OC(C)=O
CC50 at 48 h [1]: > 50 µM
Activity [2]: Active
inhibition at 10 µM (BMDM): 98.8%

C=C1CC[C@H](OC(C)=O)[C@@]2(C)[C@@H](OC(C)=O)C[C@@H](OC(=O)CC(C)C)[C@]3(CO3)[C@@H]2[C@H](OC(C)=O)[C@]2(O)[C@@H](C)C(=O)O[C@H]2[C@H]1Cl [JUNCENOLIDE J]
CC50 at 48 h [1]: > 50 µM
inhibition at 10 µM (BMDM): 98.8%

CC(=O)O[C@H]1/C=C\C(CCl)=C/[C@@H]2OC(=O)[C@H](C)[C@@]2(O)[C@@H](OC(C)=O)[C@H]2[C@@]3(CO3)[C@H](OC(=O)CC(C)C)C[C@H](OC(C)=O)[C@]12C
CC50 at 48 h [1]: > 50 µM
inhibition at 10 µM (BMDM): 29.1%

C=C1[C@H]2O[C@]3([C@H](C)C(=O)O[C@H]3[C@H]1Cl)[C@@H](OC(C)=O)[C@H]1[C@]3(CC[C@H](OC(C)=O)[C@]1(C)[C@@H](OC(C)=O)[C@@H]2OC(C)=O)CO3
CC50 at 48 h [1]: > 50 µM
inhibition at 10 µM (BMDM): 12.2%

CC(=O)O[C@H]1/C=C\C(CCl)=C/[C@@H]2OC(=O)[C@H](C)[C@@]2(O)[C@@H](OC(C)=O)[C@H]2[C@@]3(CO3)[C@H](OC(C)=O)C[C@H](OC(=O)CC(C)C)[C@]12C
CC50 at 48 h [1]: > 50 µM
inhibition at 10 µM (BMDM): 18%

C=C1/C=C\[C@@H](OC(=O)COC(=O)CC(C)C)[C@@]2(C)[C@@H](OC(C)=O)[C@@H](OC(C)=O)[C@@H](OC(=O)CC(C)C)[C@]3(CO3)[C@@H]2[C@H](OC(C)=O)[C@]2(O)[C@@H](C)C(=O)O[C@H]2C1Cl (stereo partly specified)
CC50 at 48 h [1]: > 50 µM
inhibition at 10 µM (BMDM): 84.3%

C=C1/C=C/[C@H](OC(C)=O)[C@@]2(C)[C@@H](OC(C)=O)C[C@@H](OC(C)=O)[C@]3(CO3)[C@@H]2[C@H](OC(C)=O)[C@]2(O)[C@@H](C)C(=O)O[C@H]2[C@H]1Cl [GEMMACOLIDE H]
CC50 at 48 h [1]: > 50 µM
inhibition at 10 µM (BMDM): 13.1%

CC(=O)O[C@H]1[C@@H](OC(=O)CC(C)C)[C@](O)(CO)[C@@H]2[C@H](OC(C)=O)[C@@]3(O)[C@H](/C=C(CO)\C=C/[C@H](OC(C)=O)[C@@]2(C)[C@H]1OC(C)=O)OC(=O)[C@@H]3C
CC50 at 48 h [1]: > 50 µM
Activity [2]: inactive
inhibition at 10 µM (BMDM): 34.8%

CC(=O)O[C@H]1[C@@H](OC(=O)CC(C)C)[C@](O)(CO)[C@@H]2[C@H](OC(C)=O)[C@@]3(O)[C@H](/C=C(CO)\C=C/[C@H](OC(=O)COC(=O)CC(C)C)[C@@]2(C)[C@H]1OC(C)=O)OC(=O)[C@@H]3C
CC50 at 48 h [1]: > 50 µM
Activity [2]: inactive
inhibition at 10 µM (BMDM): 30.8%

CC(=O)O[C@H]1[C@@H](O)[C@](O)(CO)[C@@H]2[C@H](OC(C)=O)[C@@]3(O)[C@H](/C=C(CO)\C=C/[C@H](OC(C)=O)[C@@]2(C)[C@H]1OC(=O)CC(C)C)OC(=O)[C@@H]3C
CC50 at 48 h [1]: > 50 µM
Activity [2]: inactive
inhibition at 10 µM (BMDM): 57.6%

C=C1CC[C@H](OC(C)=O)[C@]2(C)[C@@H](OC(C)=O)CC/C(C)=C\[C@@H]3OC(=O)[C@H](C)[C@@]3(O)[C@@H](OC(C)=O)[C@@H]12
CC50 at 48 h [1]: > 50 µM
inhibition at 10 µM (BMDM): 64.5%

C=C1[C@H](Cl)[C@@H]2OC(=O)[C@H](C)[C@]23O[C@]1(O)C[C@H](OC(C)=O)[C@@]1(C)[C@@H](OC(C)=O)C[C@@H](OC(C)=O)[C@]2(CO2)[C@@H]1[C@@H]3OC(C)=O
CC50 at 48 h [1]: > 50 µM
Activity [2]: Active
inhibition at 10 µM (BMDM): 29.3%

CC(=O)OC1[C@@H](OC(=O)CC(C)C)[C@]2(CO2)[C@@H]2[C@H](OC(C)=O)[C@@]3(O)[C@H](/C=C(CCl)\C=C/[C@H](OC(=O)COC(=O)CC(C)C)[C@@]2(C)[C@H]1OC(C)=O)OC(=O)[C@@H]3C (stereo partly specified)
CC50 at 48 h [1]: > 50 µM
inhibition at 10 µM (BMDM): 86.6%

C=C1[C@H]2O[C@]3([C@@H](C)C(=O)O[C@H]3[C@H]1Cl)[C@@H](OC(C)=O)[C@H]1[C@@]3(CO3)[C@H](OC(=O)CC(C)C)C[C@H](OC(C)=O)[C@]1(C)[C@@H](OC(C)=O)[C@@H]2OC(C)=O
CC50 at 48 h [1]: > 50 µM
inhibition at 10 µM (BMDM): 51.7%

C=C1/C=C/[C@H](OC(C)=O)[C@@]2(C)[C@@H](OC(C)=O)C[C@@H](OC(=O)CC(C)C)[C@]3(CO3)[C@@H]2[C@H](OC(C)=O)[C@]2(O)[C@@H](C)C(=O)O[C@H]2[C@H]1Cl [GEMMACOLIDE I]
CC50 at 48 h [1]: > 50 µM
inhibition at 10 µM (BMDM): 62.2%

CC(=O)O[C@H]1[C@@H](OC(=O)CC(C)C)[C@]2(CO2)[C@@H]2[C@H](OC(C)=O)[C@@]3(O)[C@H](/C=C(CO)\C=C/[C@H](OC(C)=O)[C@@]2(C)[C@H]1OC(C)=O)OC(=O)[C@@H]3C
CC50 at 48 h [1]: > 50 µM
inhibition at 10 µM (BMDM): 55.8%

CCOCC1=C/[C@@H]2OC(=O)[C@H](C)[C@@]2(O)[C@@H](OC(C)=O)[C@H]2[C@@]3(CO3)[C@H](OC(=O)CC(C)C)C[C@H](OC(C)=O)[C@]2(C)[C@@H](OC(C)=O)/C=C\1
CC50 at 48 h [1]: > 50 µM
inhibition at 10 µM (BMDM): 51.2%

CC(=O)O[C@H]1CC/C(C)=C\[C@@H]2OC(=O)[C@H](C)[C@@]2(O)[C@@H](OC(C)=O)[C@H]2[C@]3(CC[C@H](OC(C)=O)[C@]12C)CO3 [JUNCEELLOLIDE K]
CC50 at 48 h [1]: > 50 µM
inhibition at 10 µM (BMDM): 86.6%

C=C1CC[C@H](OC(C)=O)[C@]2(C)[C@@H](OC(C)=O)C[C@@H](OC(C)=O)/C(COC(=O)CC(C)C)=C\[C@@H]3OC(=O)[C@H](C)[C@@]3(O)[C@@H](OC(C)=O)[C@@H]12
CC50 at 48 h [1]: > 50 µM
inhibition at 10 µM (BMDM): 91.3%
